Test results taken from patent publication US20260274810A1, “NOVEL MITOFUSIN INHIBITORS” (ALBERT EINSTEIN COLLEGE OF MEDICINE, priority 2023, published 2026).
Each block holds one molecule with its values, some of them ahead of it. Numbered stars: 1 amine (or outer) side, 2 acyl side, 3 side chain; on linkers, the order of the positions; unused ones are H or OH. Bridge positions count the residues as written; N and C are the ends. Square brackets hold non-standard residues; d marks the D form. Peptide text beside a SMILES is read from it. I, II: the chains in the order shown. Hexamethylenediamine = C(CCCN[*:2])CCN[*:1]; Dip = N[C@H](C(=O)O)C(c1ccccc1)c1ccccc1; Chg = N[C@H](C(=O)O)C1CCCCC1; NMeA = CN[C@@H](C)C(=O)O

Experiments:
[1] = target: T1, HR2 domain of MFN2 (Homo sapiens, UniProt O95140); test: Microscale thermophoresis (MST) binding
T1 construct: Human MFN2 residues 678-757 corresponding to the HR2 domain; made in house; host or cells: E. coli BL21(DE3) CodonPlus (DE3)-RIPL
T1 sequence (O95140 678-757): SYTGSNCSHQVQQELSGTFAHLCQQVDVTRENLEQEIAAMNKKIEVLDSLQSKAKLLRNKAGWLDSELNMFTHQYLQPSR
Protocol: Freshly purified His-tagged MFN2-HR2 domain was used for Microscale Thermophoresis (MST) binding studies. For protein labelling, a fresh stock of 5 M His-tag-RED-tris-NTA 2nd generation dye (Nanotemper) in 25 mM Hepes pH 7.5, 100 mM NaCl, 0.005% Tween-20 (assay buffer) was used to label 500 nM of MFN2-HR2 in the same buffer. The labeling reaction was incubated for 30 min at RT and centrifuged at 15.000×g at 4° C. for 10 min. Labelled protein from the supernatant was kept on ice and used immediately. Compounds were serially diluted in 100% DMSO. Immediately before mixing with labeled protein, the dilution series was transferred in assay buffer to reach 2% DMSO. 10 μl of each compound in the final series was mixed with 10 µl of labeled protein and samples were incubated for 5 min at 30° C. before MST measurement using a MonolithNT.115 instrument (Nanotemper). Peptides were diluted in assay buffer plus 2% DMSO and treated as above. […] Kd values were obtained from non-linear regression fits of normalized data to a three or four parameter logistic curve, using GraphPad Prism 9.

[2] = system: caspase-3/7 in MEFs; test: Caspase-3/7 activation assay; type: cell-based, mouse; details: 6 hr
Protocol: Caspase-3/7 activation assay. Cells (5×10^3 cells/well) were seeded in a 96-well white plate and treated with MASM7, MFI8. Caspase 3/7 activation was measured after 6 hr by addition of the Caspase-Glo 3/7 reagent according to the manufacturer's protocol (Promega). Luminescence was detected by a F200 PRO microplate reader (TECAN). Caspase assays were performed in at least triplicate and the data normalized to vehicle-treated control wells. Dilutions of MASM7 or MFI8 were performed using a TECAN D300e Digital Dispenser from 10 mM stocks.

[3] = system: cells; test: Cell death assay (Annexin V / PI); type: cell-based
Protocol: Cell death assay. Cells (2×10^5 cells/well) were seeded in a 6-well plate and treated with the indicated drugs for 6 hours. Cells were dissociated using Accutase (Thermo Fisher; Cat. #00-4555-56) in order to avoid accidental exposure of phosphatidylserine on the outer plasma membrane. Cell death was evaluated with Dead Cell Apoptosis Kit with Annexin V Alexa Fluor™ 488 & Propidium Iodide (Thermo Fisher; Cat. #V13241) according to manufacturer's protocol. Data was acquired by BD LSRII flow cytometer system using BD FACSDiva software. Data was analyzed by FlowJo (BD).

[4] = system: MEFs; test: Mitochondrial aspect ratio (Mito AR), live cell imaging; details: for mitochondrial aspect ratio / mitochondrial fragmentation: WT cells
Protocol: Live cell imaging. MEFs were seeded on chamber slides (MatTek Corporation: 35 mm dishes, No. 1.5, 14 mm glass diameter) at ~70% confluence. […] Images were taken with Leica SP5 inverted confocal microscope. Data were analyzed with Image J software. >200 mitochondria were measured per condition in mitochondrial aspect ratio.
Measurement of mitochondrial aspect ratio (Mito AR). Images that depict stained mitochondria with mitotracker green were analyzed using FIJI We measured for each mitochondrion its length and width. Then, we divided the length by the width for each mitochondrion to get its mitochondrial aspect ratio. >200 mitochondria were measured per treatment.
MEFs were seeded on chamber slides (MatTek Corporation: 35 mm dishes, No. 1.5, 14 mm glass diameter) at ~70% confluence. Cells were treated with compounds. Then, cells were stained with MitoTracker Green (200 nM, Invitrogen) for 20 min at 37° C. After treatments, media was replaced with FluoroBrite™ DMEM (Invitrogen) supplemented with 10% FBS, 100 U ml^−1 penicillin/streptomycin, 2 mM L-glutamine and compound prior image acquisition. Images were taken with Leica SP5 inverted confocal microscope. Data were analyzed with Image J software. >200 mitochondria were measured per condition in mitochondrial aspect ratio. Measurement of mitochondrial aspect ratio (Mito AR). Images that depict stained mitochondria with mitotracker green were analyzed using FIJI software. Each mitochondrion was measured for its length and width. Then, the length was divided by the width for each mitochondrion to get its mitochondrial aspect ratio. >200 mitochondria were measured per treatment.

[5] = mouse liver microsome assay; type: in vitro ADME; details: FIG. 2
[6] = system: MFNs; details: reported small molecule; cited from earlier work

SMILES: CN[C@@H](C)C(=O)N[C@H](C(=O)N1CCC[C@H]1C(=O)N[C@H](C(=O)NCCCCCCNC(=O)[C@@H](NC(=O)[C@@H]1CCCN1C(=O)[C@@H](NC(=O)[C@H](C)NC)C1CCCCC1)C(c1ccccc1)c1ccccc1)C(c1ccccc1)c1ccccc1)C1CCCCC1 [BV6, reference compound] (I: H-[NMeA][Chg]P[Dip] / II: H-[NMeA][Chg]P[Dip]; linker I:C-II:C via Hexamethylenediamine)
- cell death on BV6 treatment ([3]; deletion of MFNs): sensitized cells to BV6 treatment

SMILES: Cc1oncc1C(=O)Nc1ccc(C(F)(F)F)cc1 [Leflunomide]
- MFNs protein levels [6]: alters MFNs protein levels through loss of pyrimidine synthesis

The next lines start with results.

- binding to the HR2 domain of MFN2 [1]: did not demonstrate measurable binding
- caspase-3/7 activity [2]: did not increase caspase-3/7 activity
SMILES: Cc1cccc(NC(C)c2ccccc2O)c1C (stereo not shown) [MFI22]
- sensitization to BV6-induced cell death ([3]; combined with BV6): did not sensitize cells to BV6 treatment
- mitochondrial aspect ratio / mitochondrial fragmentation [4]: significantly reduced the capacity of the compound to promote mitochondrial fragmentation

- binding to the HR2 domain of MFN2 [1]: did not demonstrate measurable binding
SMILES: Cc1cccc(NC(C)c2cccc(Cl)c2)c1C (stereo not shown) [MFI26]
- mitochondrial aspect ratio / mitochondrial fragmentation [4]: detrimental for the activity

- half life (t½) [5]: increased half life
- IC50 ([4]; Mus musculus, 6 h, read-out: IC50 (decrease of Mito AR)): 1.79 µM
SMILES: Cc1cccc(NC(=O)c2cc(Cl)cc(-c3ccccn3)c2O)c1C [MFI43]
